Assay results taken from US7531509B2, “Papillosin antimicrobial peptide, a gene coding said peptide, a vector, a transformed organism and a compound containing said organism” (Centre National de la Recherche Scientifique—CNRS, priority 2003, dated 2009).
No end group written: not given here.

How the values were obtained:
[1] = test system: gram-positive and gram-negative bacteria; assay: Spectrum of antibacterial activity (summary); format: cell-based; conditions: on gram-positive and gram-negative bacteria
Experimental: (§1) Complementary tests were carried out to determine the spectrum of activity of papillosin. The minimal bactericidal concentration (MBC) for each bacterial strain tested is determined as follows: The peptide is placed in a solution containing 0.01% acetic acid and 0.2% bovine serum albumin (BSA), then, serial dilutions of 2 2 are realized in the same 0.01% solution of acetic acid and 0.2% BSA. 10 μl of each dilution are incubated in sterile 96-well plates (Becton Dickinson, USA, ref: 18572) in the presence of 100 μl of a bacterial suspension brought to an optical density of 0.001 at 600 nm in the Mueller Hinton environment (MLHB, SIGMA, ref: M-9677).
(§2) The bacterial growth is monitored after 18 hours of incubation under agitation. The MBC is determined by spreading out the content of the first three wells in which no bacterial growth was observed. This spreading out was carried out on Petri dishes on which an agar was poured prepared from the Mueller Hinton environment. These dishes were then incubated 18 hours. The MBC corresponds to the lowest concentration of peptide for which no bacterial colony was observed on the incubated dishes.

[2] = test system: M. luteus; format: cell-based; conditions: 18 h
Experimental: as §1, §2

GFWKKVGSAAWGGVKAAAKGAAVGGLNALAKHIQ [papillosin]
bacteriolytic activity [1]: powerful bacteriolytic activity
MBC [2]: 0.125 to 0.25 µM
